Experimental findings from paper PMC10919040, “Exploration of newly synthesized azo-thiohydantoins as the potential alkaline phosphatase inhibitors via advanced biochemical characterization and molecular modeling approaches” (BMC Chemistry, 2024) are described below.

intestinal alkaline phosphatase (IAP), sequence (P19111 20-533): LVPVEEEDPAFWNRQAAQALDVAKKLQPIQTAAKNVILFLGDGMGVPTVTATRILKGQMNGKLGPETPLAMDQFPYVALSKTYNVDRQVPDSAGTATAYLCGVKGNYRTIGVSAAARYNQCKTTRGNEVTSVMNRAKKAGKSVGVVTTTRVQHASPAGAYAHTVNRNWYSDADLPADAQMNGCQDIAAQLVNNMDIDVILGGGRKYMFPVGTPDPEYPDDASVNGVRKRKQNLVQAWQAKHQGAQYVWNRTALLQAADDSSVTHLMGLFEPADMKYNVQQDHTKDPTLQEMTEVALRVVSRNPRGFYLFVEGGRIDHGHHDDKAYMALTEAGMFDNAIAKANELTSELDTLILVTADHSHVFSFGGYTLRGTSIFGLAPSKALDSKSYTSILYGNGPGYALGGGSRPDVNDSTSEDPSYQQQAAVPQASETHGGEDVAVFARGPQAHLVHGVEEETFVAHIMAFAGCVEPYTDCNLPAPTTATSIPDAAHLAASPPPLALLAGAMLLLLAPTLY

The first data set has as its target intestinal alkaline phosphatase (IAP) (Bos taurus, UniProt P19111). Description: Alkaline phosphatase inhibition assay (spectrophotometric, p-NPP substrate). Type of data set: biochemical, calf. The following applies: p-NPP 0.5 mM, pH 9.5, 37 °C, Mean ± SEM. As to the method:
The measurement of intestinal alkaline phosphatase (IAP) activity was conducted using a spectrophotometric method, as described earlier. […] Additionally, 10 µL of the compound was added to the mixture. The mixture was subjected to pre-incubation with 5 µL of IAP (0.025 U/mL) for a duration of 10 min. The reaction was started by introducing 10 µL of the substrate, which was 0.5 mM p-NPP (para nitrophenyl phosphate disodium salt). Following the addition, the assay underwent an incubation period of 30 min at a temperature of 37 °C. The change in absorbance resulting from the release of p-nitrophenolate was monitored at a wavelength of 405 nm using a Thermo Scientific™ Multiskan GO™ microplate reader. The experiment was repeated three times, with each repetition being done in triplicate. […] The calculation of inhibition activity and IC50 values were carried out as discussed earlier.
What is called IC50 is the midpoint of a concentration-inhibition curve. Low values mean greater potency in that assay, high ones weaker potency in that assay. Take `O=C1CNC(=S)N1/N=C/c1cc(/N=N/c2ccccc2)ccc1O` [Compound 7a, 3-((E)-(2-hydroxy-5-((E)-phenyldiazenyl)benzylidene)amino)-2-thioxoimidazolidin-4-one]: half-maximal inhibition (IC50) was put at 4.85 ± 0.985 µM.

Take `O=C1CNC(=S)N1/N=C/c1cc(/N=N/c2ccc([N+](=O)[O-])cc2)ccc1O` [Compound 7f, 3-((E)-(2-hydroxy-5-((E)-(4-nitrophenyl)diazenyl)benzylidene)amino)-2-thioxoimidazolidin-4-one]: the IC50 came to 0.836 ± 0.097 µM. This IC50 is about 5.8-fold lower than that of the compound before.

Turning to `Cc1c(Cl)cccc1/N=N/c1ccc(O)c(/C=N/N2C(=O)CNC2=S)c1` [Compound 7d, 3-((E)-(5-((E)-(3-chloro-2-methylphenyl)diazenyl)-2-hydroxybenzylidene)amino)-2-thioxoimidazolidin-4-one], the IC50 was 3.15 ± 0.853 µM.

For `N[C@@H](Cc1ccccc1)C(=O)O` [L–Phenyl alanine, reference compound], inhibition was half-maximal at 80.2 ± 1.1 µM (IC50).

`O=C1CNC(=S)N1/N=C/c1cc(/N=N/c2ccc(S(=O)(=O)O)cc2)ccc1O` [Compound 7b, 4-((E)-(4-hydroxy-3-((E)-((5-oxo-2-thioxoimidazolidin-1-yl)imino)methyl)phenyl)-diazenyl)benzenesulfonic acid] returned an IC50 of 1.28 ± 0.214 µM.

As for `O=C(O)c1ccc(/N=N/c2ccc(O)c(/C=N/N3C(=O)CNC3=S)c2)cc1` [Compound 7e, 4-((E)-(4-hydroxy-3-((E)-((5-oxo-2-thioxoimidazolidin-1-yl)imino)methyl)phenyl)diazenyl)benzoic acid], the midpoint of inhibition, the IC50, lay at 0.308 ± 0.065 µM. Against the preceding compound, the IC50 is about 4.2-fold lower.

Take `O=C1CNC(=S)N1/N=C/c1cc(/N=N/c2cccc(Cl)c2Cl)ccc1O` [Compound 7c, 3-((E)-(5-((E)-(2,3-dichlorophenyl)diazenyl)-2-hydroxybenzylidene)amino)-2 thioxoimidazolidin-4-one]: the midpoint of inhibition, the IC50, lay at 3.07 ± 0.687 µM. Against the preceding compound, the IC50 is about 10-fold higher.

Tested on in another data set: not given
Test: not given
Conditions: not given
The melting point is the temperature of the solid-liquid transition. The compound `O=C1CNC(=S)N1/N=C/c1cc(/N=N/c2ccc([N+](=O)[O-])cc2)ccc1O` [Compound 7f, 3-((E)-(2-hydroxy-5-((E)-(4-nitrophenyl)diazenyl)benzylidene)amino)-2-thioxoimidazolidin-4-one] returned a melting point of 271 to 273 °C.
